Values of other authors in patent US7671089B2 (XenoPort, Inc., priority 2004, dated 2010).

Tests used:
[1] = rats
[2] = following oral administration

Row | SMILES | absorption following rectal administration [1] | duration time [2] | levels of levodopa [2]
1 | C[C@@](Cc1ccc(O)c(O)c1)(NN)C(=O)O [carbidopa] | poor | – | –
2 | CC(C)(C)C(=O)Oc1ccc(C[C@H](N)C(=O)O)cc1O [NB-355] | – | prolonged | low
